According to article PMC12596500, “Affinity-selected peptide ligands specifically bind i-motif DNA and modulate c-Myc gene expression” (Nucleic Acids Research, 2025):
Where two headings read alike, the source gives them in different places. Peptide text beside a SMILES is read from it.

How the values were obtained:
c-MycC27 = test: CD melting of c-MycC27; type: binding; conditions: 10 µM DNA; for TM c-MycC27, first (lower) transition / TM c-MycC27, second (higher) transition: 10 mM NaCaco pH 6.6, 10 molar eqv. peptide, mean ± SEM (n=4); for effect on c-MycC27 thermal stability, in words: pH 6.6, 10 molar equivalents peptide
Procedure: (§1) Circular Dichroism (CD) melting experiments were performed in a Jasco J-1500 spectropolarimeter with 10 µM DNA samples in 10 mM sodium cacodylate buffer at pH 6.6 using a 1 mm path length quartz cuvette. […] The samples were kept at 5°C for 5 min before starting the melt, with a temperature increase of 1°C/min, a 0.5°C data interval, and a 60-s holding time at each target temperature. Four scans were accumulated data pitch of 0.5 nm, a scanning speed of 200 nm/min, 1 s response time, 2 nm bandwidth, and 200 mdeg sensitivity. Furthermore, two CD melting experiment repeats were performed recording C-rich c-Myc at 288 and 320 nm, G-rich c-Myc at 264 and 320 nm, and dsDNA at 253 and 320 nm with the settings as described for full spectrum measurements. Data were zero corrected to 320 nm and baseline drift. The melting temperature (TM) was concluded using the Boltzmann or biphasic fitting curve on the folded fraction data using GraphPad Prism version 10.1.2. Data were processed as mean ± SEM (n = 4) and one-way ANOVA followed by Bonferroni post-hoc test to determine significant changes between peptides and controls.

c-MycC52 = conditions: 10 µM DNA; for TM c-MycC52, first (lower) transition / TM c-MycC52, second (higher) transition: 10 mM NaCaco pH 6.6, 10 molar eqv. peptide, mean ± SEM (n=4); for ΔTM c-MycC52, transition at lower temperatures / ΔTM c-MycC52, second transition at higher temperatures: 10 mM sodium cacodylate pH 6.6, 10 molar equivalents peptide vs DMSO, mean ± SEM (n = 4)
Procedure: as §1

c-MycG52 = conditions: 10 µM DNA; for TM c-MycG52: 10 mM NaCaco pH 6.6, 10 molar eqv. peptide, mean ± SEM (n=4); for ΔTM c-MycG52: 10 mM sodium cacodylate pH 6.6, 10 molar equivalents peptide vs DMSO, mean ± SEM (n = 4)
Procedure: as §1

c-MycG27 = test: CD melting of c-MycG27; type: binding; conditions: 10 µM DNA; for TM c-MycG27: 10 mM NaCaco pH 6.6, 10 molar eqv. peptide, mean ± SEM (n=4); for effect on c-MycG27 thermal stability, in words: pH 6.6, 10 molar equivalents peptide
Procedure: as §1

dsDNA (DS) = test: CD melting of double-stranded DNA; type: binding; conditions: for TM DS / ΔTM DS: 10 µM DNA, SEM; for TM DS / effect on dsDNA melting compared to the solvent controls, in words: 10 mM NaCaco pH 6.6, 10 molar eqv. peptide; for TM DS: mean ± SEM (n=4); for ΔTM DS: 10 mM sodium cacodylate pH 6.6, 10 molar equivalents peptide vs DMSO, mean ± SEM (n = 4); for effect on dsDNA melting compared to the solvent controls, in words: 10 µM DS
Procedure: as §1

DAPc = test: UV titration, DAPc; type: binding; parameters: key to Kd DAPc, 100 mM KCl: Binding classified as non-specific (NS) showed no consistent or concentration-dependent pattern, under the tested conditions; key to Kd DAPc: NS = non-specific binding indicates where no significant pattern of binding was observed at the concentration range of the experiment; conditions: for Kd DAPc: UV titration at 350 nm, 10 µM peptide, 10 mM sodium cacodylate pH 6.6, no KCl; for Kd DAPc, 100 mM KCl: UV titration, 10 mM sodium cacodylate 100 mM potassium chloride pH 6.6, two experiments
Procedure: (§2) UV titrations were recorded using an Agilent Cary-60 UV/VIS spectrometer with a 10 mm path length black-walled quartz cuvette. Oligonucleotides (c-MycC27, c-MycC52, c-MycG27, c-MycG52, DAPc, DAPg, and dsDNA; sequences listed in Supplementary Table S1) were annealed as 250 µM stock solutions in 10 mM sodium cacodylate buffer (pH 6.6) in the presence or absence of 100 mM KCl. Spectra were recorded at room temperature over a wavelength range of 300–500 nm with 1 nm intervals. Buffer-only spectra were recorded and subtracted from each dataset as blanks. Peptide ligands were prepared as 1 mM stock solutions in DMSO and added to the cuvette at a final concentration of 10 µM in buffer prior to DNA addition. DNA stock was diluted to 50 µM in buffer and was added stepwise to the peptide solution to reach 2.5 µM final concentration, followed by additions from the 250 µM DNA stock to reach final DNA concentrations of 30 or 50 µM. The absorbance at 350 nm was monitored and plotted against DNA concentration. Binding curves were fitted using a one-site binding model in GraphPad Prism version 10.1.2, and Kd values were determined from normalized data to represent the DNA-ligand bound fraction.
(§3) Despite the demonstrable importance of the extended five-tract C-rich sequence within the c-Myc promoter, most studies looking at ligand binding use the shorter sequences. […] Although the iM-targeting antibody is specific for iM as a structure, it also binds multiple types of iM-structures.

dsDNA = test: UV titration, dsDNA; type: binding; parameters: key to Kd dsDNA, 100 mM KCl: Binding classified as non-specific (NS) showed no consistent or concentration-dependent pattern, under the tested conditions; key to Kd dsDNA: NS = non-specific binding indicates where no significant pattern of binding was observed at the concentration range of the experiment; conditions: for Kd dsDNA: UV titration at 350 nm, 10 µM peptide, 10 mM sodium cacodylate pH 6.6, no KCl; for Kd dsDNA, 100 mM KCl: UV titration, 10 mM sodium cacodylate 100 mM potassium chloride pH 6.6, two experiments
Procedure: as §2, §3

[1] = tested on: human insulin promoter (ILPR) firefly luciferase reporter in HEK293 cells; test: Dual-luciferase reporter assay, insulin promoter (ILPR); type: cell-based; conditions: HEK293, 4 h, 10 µM peptide with Nanocin Pro
[2] = 10 mM sodium cacodylate pH 6.6, 10 molar equivalents peptide vs DMSO, mean ± SEM (n = 4), SEM

CC(=O)N1CCC[C@H]1C(=O)N[C@H](C(=O)N[C@@H](CC(N)=O)C(=O)N[C@H](C(=O)N[C@@H](CO)C(=O)NCC(=O)N[C@@H](CCCNC(=N)N)C(=O)N[C@@H](CC(N)=O)C(=O)N[C@@H](Cc1ccc(O)cc1)C(=O)N[C@@H](CC(C)C)C(=O)N[C@@H](Cc1ccccc1)C(=O)N[C@@H](CS)C(N)=O)C(C)C)[C@@H](C)O [Pep-PTN] (Ac-PTNVSGRNYLFC-NH2)
TM c-MycC27, first (lower) transition (c-MycC27; SEM): 27 ± 0.7 °C
TM c-MycC27, second (higher) transition (c-MycC27; SEM): 79 ± 0.5 °C
ΔTM c-MycC27, first value (transition at lower temperature) (c-MycC27; [2]): 0 ± 0.5; 0 ± 0.5 °C
ΔTM c-MycC27, second value (transition at higher temperature) (c-MycC27; [2]): 0 ± 0.5; 0 ± 0.5 °C
effect on c-MycC27 thermal stability, in words (c-MycC27): neither stabilized nor destabilized
TM c-MycC52, first (lower) transition (c-MycC52; SEM): 32 ± 2.0 °C
TM c-MycC52, second (higher) transition (c-MycC52; SEM): 79 ± 0.8 °C
ΔTM c-MycC52, transition at lower temperatures (c-MycC52): no significant change
ΔTM c-MycC52, second transition at higher temperatures (c-MycC52; SEM): −2 ± 0.3 °C
ΔTM c-MycC52, transition at lower temperatures (c-MycC52; SEM): −1 ± 0.5 °C
decrease in TM of the more stable iM population of c-MycC52 (c-MycC52; pH 6.6, 10 molar equivalents peptide, given as a decrease, without sign): 2 ± 0.3 °C
TM c-MycG52 (c-MycG52): 45 ± 1.0 °C
ΔTM c-MycG52 (c-MycG52): +2 ± 0.3 °C
TM c-MycG27 (c-MycG27; SEM): 50 ± 1.0 °C
ΔTM c-MycG27 (c-MycG27; [2]): −1 ± 0.5 °C
effect on c-MycG27 thermal stability, in words (c-MycG27): neither stabilized nor destabilized
TM DS (dsDNA (DS)): 52 ± 1.0 °C
ΔTM DS (dsDNA (DS)): 0 ± 0.6 °C
effect on dsDNA melting compared to the solvent controls, in words (dsDNA (DS)): no effect on dsDNA melting
Kd DAPc (DAPc): NS
Kd DAPc, 100 mM KCl (DAPc): NS
Kd dsDNA (dsDNA): NS
Kd dsDNA, 100 mM KCl (dsDNA): NS
insulin promoter (ILPR) reporter response [1]: no significant change in response

CC(=O)N[C@H](C(=O)N[C@@H](CO)C(=O)N[C@@H](CCC(=O)O)C(=O)N[C@@H](C)C(=O)N[C@@H](Cc1c[nH]c2ccccc12)C(=O)N[C@@H](CCCCN)C(=O)N[C@@H](CCC(=O)O)C(=O)N[C@H](C(=O)N[C@@H](CCCCN)C(=O)NCC(=O)N[C@@H](Cc1ccccc1)C(=O)N[C@@H](Cc1ccccc1)C(N)=O)C(C)C)C(C)C [Pep-VSE] (Ac-VSEAWKEVKGFF-NH2)
TM c-MycC27, first (lower) transition (c-MycC27; SEM): 26 ± 1.0 °C
TM c-MycC27, second (higher) transition (c-MycC27; SEM): 80 ± 0.6 °C
ΔTM c-MycC27, first value (transition at lower temperature) (c-MycC27; [2]): 0 ± 0.6 °C
effect on c-MycC27 thermal stability, in words (c-MycC27): neither stabilized nor destabilized
TM c-MycC52, first (lower) transition (c-MycC52; SEM): 33 ± 0.9 °C
TM c-MycC52, second (higher) transition (c-MycC52; SEM): 74 ± 0.7 °C
ΔTM c-MycC52, second transition at higher temperatures (c-MycC52; SEM): −14 ± 0.5 °C
ΔTM c-MycC52, transition at lower temperatures (c-MycC52; SEM): −3 ± 0.2 °C
TM c-MycG52 (c-MycG52): 48 ± 1.0 °C
ΔTM c-MycG52 (c-MycG52): +4 ± 0.1 °C
TM c-MycG27 (c-MycG27; SEM): 48 ± 1.0 °C
effect on c-MycG27 thermal stability, in words (c-MycG27): neither stabilized nor destabilized
TM DS (dsDNA (DS)): 51 ± 0.8 °C
ΔTM DS (dsDNA (DS)): 0 ± 0.8 °C
effect on dsDNA melting compared to the solvent controls, in words (dsDNA (DS)): no effect on dsDNA melting
Kd DAPc (DAPc): NS
Kd DAPc, 100 mM KCl (DAPc): NS
Kd dsDNA (dsDNA): NS
Kd dsDNA, 100 mM KCl (dsDNA): NS
insulin promoter (ILPR) reporter response [1]: no significant change in response
